The values that follow come from US20190274975A1, “NANOPARTICLES FOR STIMULATING ELASTOGENESIS” (The Cleveland Clinic Foundation, priority 2013, published 2019).

Structures are written as SMILES.

For series [1] the following is noted: equivalent to standard oral doses; mice and human patients; Ding et al. 2005; cited from earlier work.
The test system of series [2] is aneurysmal RASMC cultures. As to the kind of experiment: Exogenous DOX on aneurysmal RASMC cultures (previous studies by the inventors). Type of series: cell-based, rat.

On to `C[C@H]1c2cccc(O)c2C(=O)C2=C(O)[C@]3(O)C(=O)C(C(N)=O)=C(O)[C@@H](N(C)C)[C@@H]3[C@@H](O)[C@@H]21` [DOX, doxycycline], for which, in series [1], the “DOX concentration measured within AAA tissues” value is around 50 ng/mL. The “exogenously delivered dose observed to inhibit proliferation and elastic matrix synthesis by EaRASMCs” value in series [2] (observed by the inventors) was 5.0 µg/mL. Further, the “exogenous DOX dosage that limited the viability of aneurysmal RASMC cultures” value in series [2] (previous studies by the inventors) came out at 5.0 µg/mL.
